Test results: patent publication US20260262643A1, “HERBICIDAL BENZOXAZINES” (FMC CORPORATION, priority 2022, published 2026)
Like-named read-outs stand apart in the source and are kept apart here.

Legend:
corn = test: Test A preemergence; format: in vivo, Zea mays; conditions: 0 to 100 scale; for Corn plant response rating (crop injury, 0 = no effect, 100 = complete kill) at 125 g/ha / Corn plant response rating (crop injury, 0 = no effect, 100 = complete kill) at 500 g/ha: Zea mays, pre-emergence, 240 h; for Corn plant response rating (crop injury, 0 = no effect, 100 = complete kill) at 500 g/ha: 500 g ai/ha
Outline: (§1)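 Seeds in loam–sand blend received a directed preemergence soil spray of compound in non-phytotoxic solvent with surfactant; postemergence plants (2–10 cm, one- to two-leaf stage) were sprayed with the same formulation. After 10 days in greenhouse, injury was rated visually versus untreated controls, 0 (no effect) to 100 (complete control).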

pigweed, palmer = test: Test A preemergence; format: in vivo, Amaranthus palmeri; conditions: 0 to 100 scale; for pest or weed control at 125 g/ha / pest or weed control at 500 g/ha: Amaranthus palmeri, pre-emergence, 240 h, read-out: Plant response rating, Pigweed, Palmer; for pest or weed control at 500 g/ha: 500 g ai/ha
Outline: as §1

wheat [1] = test: Test A postemergence; format: in vivo, Triticum aestivum; conditions: postemergence, 10 days; for plant injury at 125 g/ha / plant injury at 500 g/ha: Triticum aestivum, post-emergence, 240 h, 0 to 100 scale (0 no effect, 100 complete control); for plant injury at 125 g/ha: read-out: Wheat plant response rating; for plant injury at 500 g/ha: 500 g ai/ha, visual injury, read-out: Plant response rating, Wheat
Outline: as §1

ryegrass, Italian = test: Test A preemergence; format: in vivo, Lolium multiflorum; conditions: 0 to 100 scale; for pest or weed control at 125 g/ha / pest or weed control at 500 g/ha: Lolium multiflorum, pre-emergence, 240 h, read-out: Plant response rating, Ryegrass, Italian; for pest or weed control at 500 g/ha: 500 g ai/ha
Outline: as §1

oat, wild [2] = test: Test A preemergence; format: in vivo, Avena fatua; conditions: 0 to 100 scale; for pest or weed control at 125 g/ha / pest or weed control at 500 g/ha: Avena fatua, pre-emergence, 240 h, read-out: Plant response rating, Oat, Wild
Outline: as §1

horseweed = test: Test A postemergence; format: in vivo, Erigeron canadensis; conditions: postemergence, 10 days; for pest or weed control at 125 g/ha / pest or weed control at 500 g/ha: Erigeron canadensis, post-emergence, 240 h, 0 to 100 scale (0 no effect, 100 complete control); for pest or weed control at 125 g/ha: read-out: Horseweed plant response rating; for pest or weed control at 500 g/ha: 500 g ai/ha, visual injury, read-out: Plant response rating, Horseweed
Outline: as §1

oat, wild [3] = test: Test A postemergence; format: in vivo, Avena fatua; conditions: postemergence, 10 days; for pest or weed control at 125 g/ha / pest or weed control at 500 g/ha: Avena fatua, post-emergence, 240 h; for pest or weed control at 125 g/ha: read-out: Oat, Wild plant response rating; for pest or weed control at 500 g/ha: read-out: Plant response rating, Oat, Wild
Outline: as §1

foxtail, giant = test: Test A preemergence; format: in vivo, Setaria faberi; conditions: 0 to 100 scale; for pest or weed control at 125 g/ha / pest or weed control at 500 g/ha: Setaria faberi, pre-emergence, 240 h, read-out: Plant response rating, Foxtail, Giant; for pest or weed control at 500 g/ha: 500 g ai/ha
Outline: as §1

ragweed = test: Test A postemergence; format: in vivo, Ambrosia artemisiifolia; conditions: postemergence, 10 days; for pest or weed control at 125 g/ha / pest or weed control at 500 g/ha: Ambrosia artemisiifolia, post-emergence, 240 h; for pest or weed control at 125 g/ha: read-out: Ragweed plant response rating; for pest or weed control at 500 g/ha: read-out: Plant response rating, Ragweed
Outline: as §1

kochia = test: Test A preemergence; format: in vivo, Bassia scoparia; conditions: 0 to 100 scale; for pest or weed control at 125 g/ha / pest or weed control at 500 g/ha: Bassia scoparia, pre-emergence, 240 h, read-out: Plant response rating, Kochia; for pest or weed control at 500 g/ha: 500 g ai/ha
Outline: as §1

ducksalad = test: Test B flooded paddy test; format: in vivo, Heteranthera limosa; conditions: 250 g ai/ha, Flood, 13 days, 0 to 100 scale (0 no effect, 100 complete control); for pest or weed control at 250 g/ha: Heteranthera limosa, 312 h, read-out: Plant response rating, Ducksalad
Outline: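 Plants at the 2-leaf stage were flooded to 3 cm above the soil, and test compounds were applied directly into the paddy water, with that depth held throughout. After 13 days in a greenhouse, injury was rated visually against untreated controls on a 0–100 scale (100 = complete control).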

soybean = test: Test A postemergence; format: in vivo, Glycine max; conditions: postemergence, 10 days; for plant injury at 125 g/ha / plant injury at 500 g/ha: Glycine max, post-emergence, 240 h, 0 to 100 scale (0 no effect, 100 complete control); for plant injury at 125 g/ha: read-out: Soybean plant response rating; for plant injury at 500 g/ha: 500 g ai/ha, visual injury, read-out: Plant response rating, Soybean
Outline: as §1

wheat [4] = test: Test A preemergence; format: in vivo, Triticum aestivum; conditions: 0 to 100 scale; for plant injury at 125 g/ha / plant injury at 500 g/ha: Triticum aestivum, pre-emergence, 240 h, read-out: Plant response rating, Wheat; for plant injury at 500 g/ha: 500 g ai/ha
Outline: as §1

blackgrass = test: Test A postemergence; format: in vivo, Alopecurus myosuroides; conditions: postemergence, 10 days; for pest or weed control at 125 g/ha / pest or weed control at 500 g/ha: Alopecurus myosuroides, post-emergence, 240 h; for pest or weed control at 125 g/ha: read-out: Blackgrass plant response rating; for pest or weed control at 500 g/ha: read-out: Plant response rating, Blackgrass
Outline: as §1

[5] = 125 g ai/ha, visual injury after 10 days, 0 is no effect, 100 is complete control
[6] = visual injury after 10 days, 0 is no effect, 100 is complete control
[7] = 500 g ai/ha, visual injury after 10 days, 0 is no effect, 100 is complete control
[8] = 125 g ai/ha, 0 to 100 scale (0 no effect, 100 complete control)
[9] = 500 g ai/ha, visual injury, 0 to 100 scale (0 no effect, 100 complete control)
[10] = 125 g ai/ha, 0 to 100 scale, 0 no effect, 100 complete control

Row | Structure (SMILES) | Corn plant response rating (crop injury, 0 = no effect, 100 = complete kill) at 500 g/ha (corn; [6]) [%] | pest or weed control at 500 g/ha (pigweed, palmer; [6]) [%] | plant injury at 125 g/ha (wheat [1]; 125 g ai/ha) [%] | plant injury at 500 g/ha (wheat [1]) [%] | pest or weed control at 500 g/ha (ryegrass, Italian; [6]) [%] | pest or weed control at 500 g/ha (oat, wild [2]; [7]) [%] | pest or weed control at 125 g/ha (horseweed; 125 g ai/ha) [%] | pest or weed control at 500 g/ha (horseweed) [%] | pest or weed control at 125 g/ha (oat, wild [3]; [8]) [%] | pest or weed control at 500 g/ha (oat, wild [3]; [9]) [%] | pest or weed control at 500 g/ha (foxtail, giant; [6]) [%] | pest or weed control at 125 g/ha (ragweed; [8]) [%] | pest or weed control at 500 g/ha (ragweed; [9]) [%] | pest or weed control at 500 g/ha (kochia; [6]) [%] | pest or weed control at 250 g/ha (ducksalad) [%] | plant injury at 125 g/ha (soybean; 125 g ai/ha) [%] | plant injury at 500 g/ha (soybean) [%] | plant injury at 500 g/ha (wheat [4]; [6]) [%] | pest or weed control at 125 g/ha (blackgrass; [8]) [%] | pest or weed control at 500 g/ha (blackgrass; [9]) [%] | further results
1 | C[C@H]1CN(C(=O)c2cccc(-c3cnn(C)n3)c2)c2cccc(Cl)c2O1 [Compound 127, [(2S)-8-Chloro-2,3-dihydro-2-methyl-4H-1,4-benzoxazin-4-yl][3-(2-methyl-2H-1,2,3-triazol-4-yl)phenyl]methanone] | 0 | 90 | 10 | 20 | 90 | 20 | 0 | 0 | 0 | 10 | 100 | 0 | 10 | 60 | 0 | 100 | 100 | 0 | 0 | 80 | Corn plant response rating (crop injury, 0 = no effect, 100 = complete kill) at 125 g/ha (corn; [5]): 0%; pest or weed control at 125 g/ha (pigweed, palmer; [5]): 40%; pest or weed control at 125 g/ha (ryegrass, Italian; [5]): 20%; pest or weed control at 125 g/ha (oat, wild [2]; [5]): 0%; pest or weed control at 125 g/ha (foxtail, giant; [5]): 90%; pest or weed control at 125 g/ha (kochia; [5]): 0%; plant injury at 125 g/ha (wheat [4]; [5]): 0%
2 | C[C@H]1CN(C(=S)c2cccc(-n3cncn3)c2)c2cccc(Cl)c2O1 [Compound 139, [(2S)-8-Chloro-2,3-dihydro-2-methyl-4H-1,4-benzoxazin-4-yl][3-(1H-1,2,4-triazol-1-yl)phenyl]methanethione] | 40 | 100 | 20 | 50 | 80 | 90 | 0 | 0 | 0 | 60 | 100 | 0 | 30 | 0 | 75 | 90 | 100 | 20 | 80 | 90 | Corn plant response rating (crop injury, 0 = no effect, 100 = complete kill) at 125 g/ha (corn; 125 g ai/ha): 0%; pest or weed control at 125 g/ha (pigweed, palmer; 125 g ai/ha): 40%; pest or weed control at 125 g/ha (ryegrass, Italian; 125 g ai/ha): 50%; pest or weed control at 125 g/ha (oat, wild [2]; 125 g ai/ha): 20%; pest or weed control at 125 g/ha (foxtail, giant; 125 g ai/ha): 90%; pest or weed control at 125 g/ha (kochia; 125 g ai/ha): 0%; plant injury at 125 g/ha (wheat [4]; 125 g ai/ha): 20%
3 | CC(C)c1ncn(-c2cc(C(=O)N3C[C@H](C)Oc4c(Cl)cccc43)c3ccccc3c2)n1 [Compound 145] | 0 | 100 | – | 30 | 90 | – | – | 0 | – | – | 80 | – | – | 50 | – | – | 100 | 0 | – | – | Plant response rating, Corn (corn; 125 g ai/ha): 0; Plant response rating, Pigweed, Palmer (pigweed, palmer; 125 g ai/ha): 80; Wheat plant response rating (wheat [1]; [10]): 30; Plant response rating, Ryegrass, Italian (ryegrass, Italian; 125 g ai/ha): 40; Plant response rating, Oat, Wild (oat, wild [2]; 125 g ai/ha): 0; Plant response rating, Oat, Wild (oat, wild [2]; [7]): 50; Horseweed plant response rating (horseweed; [10]): 0; Oat, Wild plant response rating (oat, wild [3]; [10]): 10; Plant response rating, Oat, Wild (oat, wild [3]; [9]): 30; Plant response rating, Foxtail, Giant (foxtail, giant; 125 g ai/ha): 70; Ragweed plant response rating (ragweed; [10]): 0; Plant response rating, Ragweed (ragweed; [9]): 10; Plant response rating, Kochia (kochia; 125 g ai/ha): 70; Plant response rating, Ducksalad (ducksalad): 40; Soybean plant response rating (soybean; [10]): 40; Plant response rating, Wheat (wheat [4]; 125 g ai/ha): 0; Blackgrass plant response rating (blackgrass; [10]): 40; Plant response rating, Blackgrass (blackgrass; [9]): 70
